# Experimental data as given in US12061201B2, “Fluorescent probes for the visualization of FtsZ in gram-positive and gram-negative bacterial pathogens” (Rutgers, The State University of New Jersey, priority 2019, dated 2024).
# Like-named read-outs stand apart in the source and are kept apart here.
# Tests used:
# Assay in all cases: Fluorescence anisotropy binding of BOFP to FtsZ
# [1] = target: Enterococcus faecalis FtsZ (EfsFtsZ) (Enterococcus faecalis, UniProt O08439); conditions: for Kd: 50 mM Tris-HCl (pH 7.6), 50 mM KCl
# Chain of Enterococcus faecalis FtsZ (EfsFtsZ) (O08439 whole entry): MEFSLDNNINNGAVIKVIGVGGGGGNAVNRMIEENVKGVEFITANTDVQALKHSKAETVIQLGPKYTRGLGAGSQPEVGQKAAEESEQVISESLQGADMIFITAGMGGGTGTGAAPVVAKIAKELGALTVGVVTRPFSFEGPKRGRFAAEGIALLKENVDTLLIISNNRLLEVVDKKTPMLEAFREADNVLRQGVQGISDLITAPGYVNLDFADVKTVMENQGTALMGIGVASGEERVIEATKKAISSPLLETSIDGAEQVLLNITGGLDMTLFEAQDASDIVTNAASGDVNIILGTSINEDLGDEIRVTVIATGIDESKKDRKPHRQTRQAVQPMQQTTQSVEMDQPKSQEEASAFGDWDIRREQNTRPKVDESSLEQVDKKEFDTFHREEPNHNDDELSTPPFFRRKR
# Protocol: (§1) Fluorescence anisotropy assay for determining the affinities and thermodynamics associated with the binding of BOFP to FtsZ proteins. Fluorescence anisotropy experiments were performed using an AVIV model ATF105 spectrofluorometer at 15, 25, or 37° C. In these experiments, bandwidths were set to 4 nm in both the excitation and emission directions, with the excitation and emission wavelengths being set at 488 nm and 510 nm, respectively. BOFP (0.1 μM) was titrated with increasing concentrations (ranging from 0 to 12 μM) of FtsZ in 120 μL of buffer containing 50 mM Tris-HCl (pH 7.6) and 50 mM KCl. After each protein addition, the samples were equilibrated for 3 minutes, whereupon the fluorescence anisotropy was measured.
# (§2) [formula] In this equation, r0 is the anisotropy of the protein-free compound, r∞ is the anisotropy of the compound in the presence of an infinite concentration of FtsZ, [C]tot is the total concentration of the compound, and [P]tot is the total concentration of protein with each addition. These analyses yielded the equilibrium dissociation constant (Kd) for each binding reaction.
# (§3) The binding free energy (ΔG) at temperature T was derived from the corresponding Kd value determined at T using the following relationship:
# (§4) [formula] The binding enthalpy (ΔH) and entropy (ΔS) were derived from linear fits of the ln(1/Kd) vs. 1/T plots shown in FIGS. 3f and 5e using the following relationship:
# (§5) A quartz ultra-micro cell (Hellma) with a 2×5 mm aperture and a 15 mm center height was used for all measurements. The pathlengths in the excitation and emissions directions were 1 and 0.2 cm, respectively. All steady-state anisotropy experiments were conducted in at least triplicate, with the reported anisotropies reflecting the average values.
# S. aureus FtsZ (SaFtsZ) = target: T1, S. aureus FtsZ (SaFtsZ) (Staphylococcus aureus, UniProt P0A031)
# T1 sequence (P0A031 1-390): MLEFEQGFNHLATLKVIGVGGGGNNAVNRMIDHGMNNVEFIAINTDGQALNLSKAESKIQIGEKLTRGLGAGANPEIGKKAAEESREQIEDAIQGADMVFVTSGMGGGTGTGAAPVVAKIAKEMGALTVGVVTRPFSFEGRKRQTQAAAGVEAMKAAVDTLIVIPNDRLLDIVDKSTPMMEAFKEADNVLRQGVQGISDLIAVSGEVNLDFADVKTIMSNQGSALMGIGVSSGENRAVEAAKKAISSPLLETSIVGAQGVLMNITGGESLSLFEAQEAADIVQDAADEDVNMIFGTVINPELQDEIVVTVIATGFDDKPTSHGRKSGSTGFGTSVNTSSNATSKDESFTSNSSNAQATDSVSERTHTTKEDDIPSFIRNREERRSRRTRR
# Protocol: as §1, §2, §3, §4, §5
# [2] = target: T2, Pseudomonas aeruginosa FtsZ (PaFtsZ) (Pseudomonas aeruginosa, UniProt P47204); conditions: for Kd: 50 mM Tris-HCl (pH 7.6), 50 mM KCl
# T2 sequence (P47204 1-394): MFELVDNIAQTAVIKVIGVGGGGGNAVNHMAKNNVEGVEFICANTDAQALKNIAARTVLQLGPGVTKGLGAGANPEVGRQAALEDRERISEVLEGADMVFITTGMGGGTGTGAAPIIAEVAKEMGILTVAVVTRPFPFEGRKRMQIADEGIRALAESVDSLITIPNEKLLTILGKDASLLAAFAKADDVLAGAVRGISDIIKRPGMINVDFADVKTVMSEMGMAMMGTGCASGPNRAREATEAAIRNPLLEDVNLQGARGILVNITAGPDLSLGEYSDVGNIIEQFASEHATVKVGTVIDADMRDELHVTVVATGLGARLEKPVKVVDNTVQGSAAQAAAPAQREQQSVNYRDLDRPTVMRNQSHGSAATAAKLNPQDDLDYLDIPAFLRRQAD
# Protocol: as §1, §2, §3, §4, §5
# [3] = target: T3, Streptococcus pneumoniae FtsZ (SpnFtsZ) (Streptococcus pneumoniae, UniProt A0A0H2ZNE0); conditions: for Kd: 50 mM Tris-HCl (pH 7.6), 50 mM KCl
# T3 sequence (A0A0H2ZNE0 1-419): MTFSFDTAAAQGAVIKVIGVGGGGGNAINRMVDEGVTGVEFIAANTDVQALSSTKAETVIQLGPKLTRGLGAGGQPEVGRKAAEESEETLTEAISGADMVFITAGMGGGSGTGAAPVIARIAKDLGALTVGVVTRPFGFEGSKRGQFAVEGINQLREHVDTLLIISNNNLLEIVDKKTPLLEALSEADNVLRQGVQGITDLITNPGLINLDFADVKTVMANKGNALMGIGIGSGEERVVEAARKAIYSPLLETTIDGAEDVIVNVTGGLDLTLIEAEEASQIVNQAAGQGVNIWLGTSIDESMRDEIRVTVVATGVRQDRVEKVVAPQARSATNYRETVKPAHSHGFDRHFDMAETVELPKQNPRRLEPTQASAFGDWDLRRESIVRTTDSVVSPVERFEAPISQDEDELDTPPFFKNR
# Protocol: as §1, §2, §3, §4, §5
# [4] = linear fit of ln(1/Kd) vs. 1/T, Eq. 3
# [5] = SaFtsZ, linear fit of ln(1/Kd) vs. 1/T, Eq. 3
smiles,measurement,setting,value
"CC1=CC(C)=[N+]2C1=Cc1ccc(CCC(=O)OCC(Oc3ccc(F)c(C(N)=O)c3F)c3nc(-c4ccc(C(F)(F)F)cc4)c(Br)o3)n1[B-]2(F)F (centres unmarked) [BOFP, 2-(5-bromo-4-(4-(trifluoromethyl)phenyl)-oxazol-2-yl)-2-(3-carbamoyl-2,4-difluorophenoxy)ethyl 3-(5,5-difluoro-7,9-dimethyl-5H-5λ^4,6λ^4-dipyrrolo[1,2-c:2′,1′-f][1,3,2]diazaborinin-3-yl)propanoate]",enthalpic contribution (ΔH) to the observed ΔG of binding,[1],100%
same,Kd,"[1]; 15° C., read-out: Kd −15° C.",1720 ± 60 nM
same,Kd,"[1]; 25° C., read-out: Kd −25° C.",3050 ± 250 nM
same,Kd,"[1]; 37° C., read-out: Kd −37° C.",4620 ± 120 nM
same,ΔG,"[1]; T = 310K (37° C.), Eq. 2",-7.6 ± 0.1 kcal/mol
same,ΔH,[1]; [4],-7.9 ± 1.0 kcal/mol
same,ΔS,[1]; [4],−1.2 ± 3.3 cal/mol · K
same,Kd,S. aureus FtsZ (SaFtsZ),880 to 3140 nM
same,enthalpic contribution (ΔH) to the observed ΔG of binding,S. aureus FtsZ (SaFtsZ); SaFtsZ,100%
same,Kd,"S. aureus FtsZ (SaFtsZ); SaFtsZ, 15° C., 50 mM Tris-HCl (pH 7.6), 50 mM KCl, read-out: Kd −15° C.",880 ± 80 nM
same,Kd,"S. aureus FtsZ (SaFtsZ); SaFtsZ, 25° C., 50 mM Tris-HCl (pH 7.6), 50 mM KCl, read-out: Kd −25° C.",1660 ± 120 nM
same,Kd,"S. aureus FtsZ (SaFtsZ); SaFtsZ, 37° C., 50 mM Tris-HCl (pH 7.6), 50 mM KCl, read-out: Kd −37° C.",3140 ± 130 nM
same,ΔG,"S. aureus FtsZ (SaFtsZ); SaFtsZ, T = 310K (37° C.), Eq. 2",-7.8 ± 0.1 kcal/mol
same,ΔH,S. aureus FtsZ (SaFtsZ); [5],-10.2 ± 0.3 kcal/mol
same,ΔS,S. aureus FtsZ (SaFtsZ); [5],−7.8 ± 1.0 cal/mol · K
same,ΔH contribution to the observed ΔG of binding,[2],> 50%
same,Kd,"[2]; 15° C., read-out: Kd −15° C.",230 ± 20 nM
same,Kd,"[2]; 25° C., read-out: Kd −25° C.",360 ± 60 nM
same,Kd,"[2]; 37° C., read-out: Kd −37° C.",580 ± 60 nM
same,ΔG,"[2]; T = 310K (37° C.), Eq. 2",-8.8 ± 0.1 kcal/mol
same,ΔH,[2]; [4],-7.7 ± 0.2 kcal/mol
same,ΔS,[2]; [4],+3.8 + 0.6 cal/mol · K
same,ΔS contribution to the observed ΔG of binding,[3],> 50%
same,Kd,"[3]; 15° C., read-out: Kd −15° C.",3020 ± 300 nM
same,Kd,"[3]; 25° C., read-out: Kd −25° C.",3490 ± 250 nM
same,Kd,"[3]; 37° C., read-out: Kd −37° C.",3810 ± 690 nM
same,ΔG,"[3]; T = 310K (37° C.), Eq. 2",-7.7 ± 0.1 kcal/mol
same,ΔH,[3]; [4],-1.9 ± 0.3 kcal/mol
same,ΔS,[3]; [4],+18.7 ± 1.2 cal/mol · K
